Key:
Assay type in all cases: in vivo
[1] = test system: field corn (Zea mays L., var. Dekalb 535, CORN); test: Post-emerge test, crop safety; conditions: rating scale 0-100 (0 no damage, 100 complete death), 14 days after application
Outline: (§1)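 Rating: 0–100 visual injury, 14 DAA. Application: acetone, 187 l/ha, 15–1000 g ai/ha, flat-fan track sprayer with nozzle 40–45 cm above soil or canopy. Post-emerge runs used 0.25% v/v surfactant on 2–3 leaf plants.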

[2] = test system: upland rice (Oryza sp., var. Tebonnet, RICE); test: Post-emerge test, crop safety; conditions: rating scale 0-100 (0 no damage, 100 complete death), 14 days after application
Outline: as §1

[3] = test system: large crabgrass (Digitaria sanguinalis, DIGSA); test: Post-emerge test, greenhouse herbicide activity screening; conditions: rating scale 0-100 (0 no damage, 100 complete death), 14 days after application
Outline: (§2)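 Visual ratings on a 0-100 scale (0 no damage, 100 all plants dead) were taken at 14 days after treatment. Rates of 15-1000 g ai/ha in acetone, 187 l/ha, were sprayed onto soil one day after planting (pre-emerge) or onto 2-3 leaf plants with 0.25% v/v surfactant (post-emerge).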

[4] = test system: barnyardgrass (Echinochloa crus-galli, ECHCG); test: as above; conditions: rating scale 0-100 (0 no damage, 100 complete death), 14 days after application
Outline: as §2

[5] = test system: green foxtail (Setaria viridis, SETVI); test: as above; conditions: rating scale 0-100 (0 no damage, 100 complete death), 14 days after application
Outline: as §2

[6] = test system: ivyleaf morningglory (Ipomoea hederacea, IPOHE); test: as above; conditions: rating scale 0-100 (0 no damage, 100 complete death), 14 days after application
Outline: as §2

[7] = test system: lambsquarters (Chenopodium album, CHEAL); test: as above; conditions: rating scale 0-100 (0 no damage, 100 complete death), 14 days after application
Outline: as §2

[8] = test system: velvetleaf (Abutilon theophrasti, ABUTH); test: as above; conditions: rating scale 0-100 (0 no damage, 100 complete death), 14 days after application
Outline: as §2

[9] = test system: sicklepod (Cassia obtusifolia, CASOB); test: as above; conditions: rating scale 0-100 (0 no damage, 100 complete death), 14 days after application
Outline: as §2

[10] = test system: common ragweed (Ambrosia artemisizfolia L., AMBEL); test: as above; conditions: rating scale 0-100 (0 no damage, 100 complete death), 14 days after application
Outline: as §2

[11] = test system: redroot pigweed (Amaranthus retroflexus, AMARE); test: as above; conditions: rating scale 0-100 (0 no damage, 100 complete death), 14 days after application
Outline: as §2

[12] = test system: field corn (Zea mays L., var. Dekalb 535, CORN); test: Pre-emerge test, crop safety; conditions: rating scale 0-100, 14 days after application
Outline: (§3)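 Sandy loam pots; pre-emerge: sown 1 d pre-spray, surface-watered after, then bottom-watered. Post-emerge: sown 8–21 d before, 2–3 leaf stage, + 0.25% v/v NIS, bottom-watered. Acetone, 187 l/ha track spray, 15–1000 g ai/ha. 0–100 injury score, day 14.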

[13] = test system: upland rice (Oryza sp., var. Tebonnet, RICE); test: Pre-emerge test, crop safety; conditions: rating scale 0-100, 14 days after application
Outline: as §3

[14] = test system: large crabgrass (Digitaria sanguinalis, DIGSA); test: Pre-emerge test, greenhouse herbicide activity screening; conditions: rating scale 0-100, 14 days after application
Outline: (§4)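 Compounds in acetone were track-sprayed at 15–1000 g ai/ha: pre-emergence onto soil sown the previous day, then top-watered to incorporate and later bottom-watered; post-emergence onto 2–3 leaf plants with 0.25% v/v surfactant, bottom-watered only. Ratings on a 0–100 phytotoxicity scale were taken at day 14.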

[15] = test system: barnyardgrass (Echinochloa crus-galli, ECHCG); test: as above; conditions: rating scale 0-100, 14 days after application
Outline: as §4

[16] = test system: green foxtail (Setaria viridis, SETVI); test: as above; conditions: rating scale 0-100, 14 days after application
Outline: as §4

[17] = test system: ivyleaf morningglory (Ipomoea hederacea, IPOHE); test: as above; conditions: rating scale 0-100, 14 days after application
Outline: as §4

[18] = test system: lambsquarters (Chenopodium album, CHEAL); test: as above; conditions: rating scale 0-100, 14 days after application
Outline: as §4

[19] = test system: johnsongrass (Sorghum halepense, SORHA); test: as above; conditions: rating scale 0-100, 14 days after application
Outline: as §4

[20] = test system: velvetleaf (Abutilon theophrasti, ABUTH); test: as above; conditions: rating scale 0-100, 14 days after application
Outline: as §4

[21] = test system: sicklepod (Cassia obtusifolia, CASOB); test: as above; conditions: rating scale 0-100, 14 days after application
Outline: as §4

[22] = test system: common ragweed (Ambrosia artemisizfolia L., AMBEL); test: as above; conditions: rating scale 0-100, 14 days after application
Outline: as §4

[23] = test system: redroot pigweed (Amaranthus retroflexus, AMARE); test: as above; conditions: rating scale 0-100, 14 days after application
Outline: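 Compounds in acetone were track-sprayed at 15-1000 g ai/ha (187 l/ha) on sandy loam pots: pre-emerge one day after seeding, post-emerge at 2-3 leaf stage with 0.25% v/v non-ionic surfactant. Phytotoxicity was rated 14 days later on a 0 (no damage) to 100 (complete death) scale.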

SMILES: CCCCOC(=O)C(Cl)Cc1c(OC)c(Cl)cc(F)c1-n1c(=O)cc(C(F)(F)F)n(C)c1=O (single isomer, unassigned) [14-9]
- Post-emerge phytotoxicity rating CORN (crop damage) ([1]; Rate 63 g ai/ha): 70
- Post-emerge phytotoxicity rating CORN (crop damage) ([1]; Rate 250 g ai/ha): 99
- Post-emerge phytotoxicity rating RICE (crop damage) ([2]; Rate 63 g ai/ha): 5
- Post-emerge phytotoxicity rating RICE (crop damage) ([2]; Rate 250 g ai/ha): 20
- Post-emerge Herbicidal Activity, phytotoxicity rating DIGSA ([3]; Rate 63 g ai/ha): 75
- Post-emerge Herbicidal Activity, phytotoxicity rating DIGSA ([3]; Rate 250 g ai/ha): 75
- Post-emerge Herbicidal Activity, phytotoxicity rating ECHCG ([4]; Rate 63 g ai/ha): 98
- Post-emerge Herbicidal Activity, phytotoxicity rating ECHCG ([4]; Rate 250 g ai/ha): 100
- Post-emerge Herbicidal Activity, phytotoxicity rating SETVI ([5]; Rate 63 g ai/ha): 30
- Post-emerge Herbicidal Activity, phytotoxicity rating SETVI ([5]; Rate 250 g ai/ha): 60
- Post-emerge Herbicidal Activity, phytotoxicity rating IPOHE ([6]; Rate 63 g ai/ha): 0
- Post-emerge Herbicidal Activity, phytotoxicity rating IPOHE ([6]; Rate 250 g ai/ha): 80
- Post-emerge Herbicidal Activity, phytotoxicity rating CHEAL ([7]; Rate 63 g ai/ha): 60
- Post-emerge Herbicidal Activity, phytotoxicity rating CHEAL ([7]; Rate 250 g ai/ha): 99
- Post-emerge Herbicidal Activity, phytotoxicity rating ABUTH ([8]; Rate 63 g ai/ha): 70
- Post-emerge Herbicidal Activity, phytotoxicity rating ABUTH ([8]; Rate 250 g ai/ha): 100
- Post-emerge Herbicidal Activity, phytotoxicity rating CASOB ([9]; Rate 63 g ai/ha): 0
- Post-emerge Herbicidal Activity, phytotoxicity rating CASOB ([9]; Rate 250 g ai/ha): 0
- Post-emerge Herbicidal Activity, phytotoxicity rating AMBEL ([10]; Rate 63 g ai/ha): 10
- Post-emerge Herbicidal Activity, phytotoxicity rating AMBEL ([10]; Rate 250 g ai/ha): 70
- Post-emerge Herbicidal Activity, phytotoxicity rating AMARE ([11]; Rate 63 g ai/ha): 90
- Post-emerge Herbicidal Activity, phytotoxicity rating AMARE ([11]; Rate 250 g ai/ha): 99
- Pre-emerge phytotoxicity rating, crop damage CORN ([12]; 63 g ai/ha): 0
- Pre-emerge phytotoxicity rating, crop damage CORN ([12]; 250 g ai/ha): 75
- Pre-emerge phytotoxicity rating, crop damage RICE ([13]; 63 g ai/ha): 0
- Pre-emerge phytotoxicity rating, crop damage RICE ([13]; 250 g ai/ha): 5
- Pre-emerge herbicidal activity, phytotoxicity rating DIGSA ([14]; 63 g ai/ha): 90
- Pre-emerge herbicidal activity, phytotoxicity rating DIGSA ([14]; 250 g ai/ha): 100
- Pre-emerge herbicidal activity, phytotoxicity rating ECHCG ([15]; 63 g ai/ha): 0
- Pre-emerge herbicidal activity, phytotoxicity rating ECHCG ([15]; 250 g ai/ha): 70
- Pre-emerge herbicidal activity, phytotoxicity rating SETVI ([16]; 63 g ai/ha): 0
- Pre-emerge herbicidal activity, phytotoxicity rating SETVI ([16]; 250 g ai/ha): 20
- Pre-emerge herbicidal activity, phytotoxicity rating IPOHE ([17]; 63 g ai/ha): 0
- Pre-emerge herbicidal activity, phytotoxicity rating IPOHE ([17]; 250 g ai/ha): 0
- Pre-emerge herbicidal activity, phytotoxicity rating CHEAL ([18]; 63 g ai/ha): 60
- Pre-emerge herbicidal activity, phytotoxicity rating CHEAL ([18]; 250 g ai/ha): 90
- Pre-emerge herbicidal activity, phytotoxicity rating SORHA ([19]; 63 g ai/ha): 0
- Pre-emerge herbicidal activity, phytotoxicity rating SORHA ([19]; 250 g ai/ha): 30
- Pre-emerge herbicidal activity, phytotoxicity rating ABUTH ([20]; 63 g ai/ha): 0
- Pre-emerge herbicidal activity, phytotoxicity rating ABUTH ([20]; 250 g ai/ha): 90
- Pre-emerge herbicidal activity, phytotoxicity rating CASOB ([21]; 63 g ai/ha): 0
- Pre-emerge herbicidal activity, phytotoxicity rating CASOB ([21]; 250 g ai/ha): 0
- Pre-emerge herbicidal activity, phytotoxicity rating AMBEL ([22]; 63 g ai/ha): 0
- Pre-emerge herbicidal activity, phytotoxicity rating AMBEL ([22]; 250 g ai/ha): 0
- Pre-emerge herbicidal activity, phytotoxicity rating AMARE ([23]; 63 g ai/ha): 80
- Pre-emerge herbicidal activity, phytotoxicity rating AMARE ([23]; 250 g ai/ha): 100

Source: patent US6355799B1, “Substituted benzene compounds, process for their preparation, and herbicidal and defoliant compositions containing them” (ISK Americas Incorporated, priority 1997, dated 2002)
